Assay results published in PubChem BioAssay (NCI).
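Five concentrations, 48 hours, 96-well plates. The concentration for 50% growth inhibition is given as GI50. TGI is the concentration that stops growth completely.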

Columns and labels:
Experiment in all cases: DTP human tumour cell line panel, 48 h
SR leukemia = tested on: SR leukemia
MOLT-4 leukemia = tested on: MOLT-4 leukemia
KM12 colon = tested on: KM12 colon
IGROV1 ovarian = tested on: IGROV1 ovarian
NCI-H226 lung = tested on: NCI-H226 lung
SK-OV-3 ovarian = tested on: SK-OV-3 ovarian
OVCAR-4 ovarian = tested on: OVCAR-4 ovarian
DU-145 prostate = tested on: DU-145 prostate
HCC-2998 colon = tested on: HCC-2998 colon
RXF 393 renal = tested on: RXF 393 renal

Structure (SMILES)	TGI (SR leukemia)	TGI (MOLT-4 leukemia)	TGI (KM12 colon)	TGI (IGROV1 ovarian)	TGI (NCI-H226 lung)	TGI (SK-OV-3 ovarian)	GI50 (OVCAR-4 ovarian)	TGI (OVCAR-4 ovarian)	GI50 (DU-145 prostate)	TGI (DU-145 prostate)	GI50 (HCC-2998 colon)	TGI (HCC-2998 colon)	GI50 (MOLT-4 leukemia)	GI50 (IGROV1 ovarian)	GI50 (NCI-H226 lung)	GI50 (SK-OV-3 ovarian)	TGI (RXF 393 renal)	GI50 (RXF 393 renal)	GI50 (KM12 colon)	GI50 (SR leukemia)
CCOC(=O)Cn1c(=O)n(C)c(=O)c2c1ncn2Cc1ccccc1	> 100 µM	> 100 µM	> 100 µM	> 100 µM	> 100 µM	> 100 µM														
CO/N=C(/C)c1cccc(Nc2cc(-c3ccccc3)nc3ccc(OC)cc23)c1		> 100 µM		> 100 µM	41 µM	72 µM	20.2 µM	66.6 µM	12 µM	31.5 µM	4.97 µM	20.8 µM	3.05 µM	26.2 µM	15.7 µM	29.2 µM				
Cc1ncc([N+](=O)[O-])n1CCNS(=O)(=O)CCCn1ncnc1[N+](=O)[O-]	> 100 µM	> 100 µM	> 100 µM	> 100 µM	> 100 µM	> 100 µM		> 100 µM		> 100 µM							> 100 µM			
O=[N+]([O-])c1ccc(CSCc2ccc(Cl)cc2)cc1	> 100 µM	> 100 µM	> 100 µM	> 100 µM	> 100 µM	> 100 µM		> 100 µM		> 100 µM							> 100 µM			
Cc1cccc(C(C)C)c1NC(=O)C(=O)C(C(=O)c1ccccc1F)C1OC(=O)c2ccccc21 (stereo not drawn)		27.9 µM	50 µM	77.9 µM	21.5 µM	64.9 µM		74.2 µM				26.6 µM					27.5 µM			
O=C(CSC(c1ccccc1)c1ccccc1)N/N=C/c1ccco1		4.48 µM	15.5 µM	1.41 µM	17.1 µM	> 73 µM	1.73 µM	6.49 µM	2.69 µM	> 4.92 µM	1.62 µM	3.58 µM	1.64 µM		3 µM	28.3 µM	3.32 µM	1.25 µM	2.03 µM	
Cc1cc(C(C)(C)C)cc(Cc2cc(C(C)(C)C)cc(Cc3cc(C(C)(C)C)cc(C)c3O)c2O)c1O		10.6 µM	21.4 µM	23.5 µM	24.6 µM	27.9 µM		20.2 µM									6.26 µM			
COC(=O)c1cc(/C=C/c2ccc(S(N)(=O)=O)cc2)ccc1O		> 100 µM	> 100 µM	> 100 µM	52.9 µM	> 100 µM	72.9 µM	> 100 µM	15.9 µM	> 100 µM	18 µM	39.7 µM	73.1 µM	25.7 µM	21.4 µM	> 100 µM	> 100 µM	43.4 µM	24 µM	
c1ccc(CSc2nc3ccccc3nc2-c2cccs2)cc1		> 100 µM	> 100 µM	> 100 µM	> 100 µM	> 100 µM		> 100 µM				> 100 µM								
COC1=C(Br)C(=O)c2nc(C)ccc2C1=O	6.79 µM	> 20.8 µM	31.7 µM	33.9 µM	38.2 µM	33.6 µM		26.3 µM				32.2 µM					24.5 µM			
O=C(O)CN(c1ccccc1)S(=O)(=O)c1ccc([N+](=O)[O-])cc1		> 100 µM	> 100 µM	> 100 µM	> 100 µM	> 100 µM		> 100 µM									> 100 µM			
N.N.NCCCCCCCCCN.O=C([O-])CC(=O)[O-].O=C([O-])CC(=O)[O-].[Pt+4].[Pt+4]		> 100 µM	> 100 µM	> 100 µM	> 100 µM	> 100 µM	> 100 µM	> 100 µM			> 100 µM	> 100 µM	> 100 µM	> 100 µM	> 100 µM	> 100 µM	> 100 µM	> 100 µM	> 100 µM	
CN(C)CCSc1nccc(-c2cc3ccccc3s2)n1	63.4 µM	66.1 µM	48.2 µM	> 100 µM	38 µM	94.9 µM		82.2 µM				29.3 µM					56 µM			
CCCCc1c2c(nc3c1CCC/C3=C\c1ccccc1)/C(=C/c1ccccc1)CCC2	> 100 µM	> 100 µM	> 100 µM	> 100 µM	> 100 µM	> 100 µM						> 100 µM								
CCOc1ccccc1NC(=O)C(=O)Cc1nc2ccccc2s1	> 100 µM	> 100 µM	> 100 µM	> 100 µM	> 100 µM	> 100 µM		> 100 µM				> 100 µM					> 100 µM			
CC1CN1c1c(C(=O)/C=C/c2ccc(Cl)cc2)c(-c2ccccc2)nn(C)c1=O (stereo not drawn)		8.02 µM	> 10 µM	8.68 µM	> 10 µM	5.76 µM		7.52 µM				4.2 µM					8.4 µM			
Cc1cccc(C)c1NC(=O)C(=O)CC(=O)c1cccc([N+](=O)[O-])c1	> 100 µM	> 100 µM	> 100 µM	> 100 µM	> 100 µM			> 100 µM												
CC(=O)OC1C2CCC1C1C2C2(Cl)C(Cl)=C(Cl)C1(Cl)C2(Cl)Cl (stereo not drawn)	24.6 µM	26.4 µM	27.6 µM	36 µM	26.7 µM	35.3 µM		59.8 µM									29.3 µM			
[F][Sn]([F])([c]1ccccc1)[c]1ccccc1	3.81 µM	5.22 µM	3.43 µM	4 µM	4.26 µM	7.49 µM	1.68 µM	3.39 µM			1.63 µM	3.04 µM	1.17 µM	1.84 µM	2.11 µM	2.31 µM	2.64 µM	0.887 µM	1.7 µM	1.18 µM
C/C(CCn1[nH]c(=O)ccc1=O)=N\OCCCc1ccccc1	> 100 µM	> 100 µM	> 100 µM	> 100 µM	> 100 µM			> 100 µM				> 100 µM					> 100 µM			
CC(C)(C)OC(=O)N1N=NC2C1C1CC(OCc3ccccc3)(OCc3ccccc3)C2O1 (stereo not drawn)		> 100 µM	> 100 µM	> 100 µM	55.4 µM	> 100 µM		> 100 µM				> 100 µM					> 100 µM			
